The results in this text go back to a melting point compilation (Tetko et al.; mined from patent text by program, amines drawn as free bases though some values may be those of a salt).

Broadly, the melting point is the temperature, or range, at which the solid turns liquid. Regarding `COC(=O)CCc1sc(Sc2ccc(O)cc2)nc1-c1ccccc1`, the melting point is 153 to 155 °C.

For `CNC(=O)c1ccncc1I`, the melting point lay in the range of 132 to 133 °C.

`COc1ccc(C=CC(=O)c2c(OC)cc(OC)cc2OC(=O)c2ccc(OC)cc2OC)cc1` yielded a melting point of 119 to 120 °C.

Compound `CC(C)(C)N=NC(C)(C#N)COC(=O)c1ccccc1` (stereo not given) gave a melting point of 57 to 59 °C.

`CCCCN(CCCOc1ccc(S(=O)(=O)c2c(C(C)C)cn3ccccc23)cc1)C(C)c1ccc(OC)c(OC)c1` (stereo not given) yielded a melting point of 108 to 110 °C.

The compound `CNC1([C@@H]2CCN(c3ccc4c(=O)c(C(=O)O)cn(C5CC5)c4c3C)C2)CC1` came in with a melting point of 190 to 192 °C.

The compound `CCOC(=O)c1[nH]c2cc(Cl)c(Cl)cc2c1-c1ccccc1` displayed a melting point of 201 to 202 °C.

`CCCc1cc(N2CCC(NCC(O)c3nccc4ccccc34)CC2)nc2sc(C(N)=O)c(N)c12` (stereo not given) displayed a melting point below 150 °C.

`NC(=NO)c1ccc(-c2ccc(O)cc2)o1` came in with a melting point of 157 to 158 °C.

The compound `Cc1cc(C(C)(C)C)c(O)c(S(=O)(=O)Nc2ccc(C#N)cc2Cl)c1` returned a melting point of 101 to 105 °C.

In turn, `CCCCc1nc2ccn(Cc3ccccc3C(=O)OCC)c(=O)c2n1Cc1ccc(-c2ccccc2-c2nnn[nH]2)cc1` had a melting point of 203 to 204 °C.

`CN(C)CCc1c[nH]c2ccc(CCS(=O)(=O)Nc3ccccc3)cc12` returned a melting point of 144 to 146 °C.

On to `Cc1ccccc1C(=O)Nc1ccc(C(=O)N2Cc3ccc(Cl)n3Cc3ccccc32)cc1`, for which the melting point lay within 185 to 187 °C.

For the compound `CCOCc1nc2c(N)nc3cc(-c4cccnc4)ccc3c2n1CCCCNC(=O)OC(C)(C)C`, the melting point lay within 117 to 119 °C.

Consider `CCCCCCCCCc1cc(C(=O)O)n[nH]1`, for which the melting point lay within 147 to 149 °C.

As to `O=C(NCC(F)(F)F)C1(CCCCc2ccc(NS(=O)(=O)c3ccccc3)cc2)c2ccccc2-c2ccccc21`, the melting point is 130 to 132 °C.

Consider `CSc1ccc(-c2nn(CC3CC3)c(=S)cc2-c2ccc(F)cc2)cc1`, for which the melting point amounted to 136 °C.

`OC1(COc2ccccc2Cc2ccccc2)CN2CCC1CC2` (stereo not given): the melting point was 71 to 73 °C.

Turning to `Cc1cc(Br)cc(C)c1OCCO`, the melting point was 47 to 48 °C.

`OC[C@H]1O[C@@H](n2cnc3c(N[C@H]4CC[C@H](O)CC4)nc(Cl)nc32)[C@H](O)[C@@H]1O` displayed a melting point of 203 to 204 °C.

Compound `COc1ccc(-c2nc3ccc(OC(F)(F)F)cc3[nH]2)cc1OCc1ccccc1` registered a melting point of 226 to 228 °C.

Compound `CCN(CC)C(=O)c1cccc(C=O)c1` showed a melting point of 115 to 119 °C.

For `COc1ccc(-c2nc3ccc(-n4cncn4)cc3[nH]2)cc1OC(C)C`, the melting point is 118 to 126 °C.

`O=C(C=Cc1cccc(F)c1)C=Cc1cccc(F)c1` yielded a melting point of 96 to 97 °C.

For the compound `C=CCNc1cc2c(c3ccccc13)C(CCl)CN2C(=O)c1cc2cc(OC)c(OC)c(OC)c2[nH]1` (stereo not given), the melting point fell in the range of 107 to 112 °C.

For the compound `COCc1ccc([C@H]2CC[C@H]([C@H]3CC[C@H](C=O)CC3)CC2)cc1F`, the melting point lay within 52 to 54 °C.

On to `OC(c1ccncc1)(c1ccc(F)c(F)c1)c1ccc(F)c(F)c1`, for which the melting point lay within 147 to 149 °C.

On to `Cc1cc(Oc2cccc(C(=O)O)n2)n(C)n1`, for which the melting point turned out to be 182 °C.

In the case of `OCc1ccc(I)nc1`, the melting point turned out to be 102 °C.

`CN(C#N)C1CN(C(=O)Nc2ccc(C(F)(F)F)cc2)N=C1c1ccc(Cl)cc1` (stereo not given) registered a melting point of 216 to 217 °C.

The compound `CCCCCc1cc(N)cc(O)c1` came in with a melting point of 88 to 91 °C.

The compound `CN1CCC(c2cccc3ccc(-c4cncnc4)cc23)CC1` showed a melting point of 122 to 123 °C.

Regarding `Cc1cc(C)c(CCCC(C)(C)O)c(O)c1`, the melting point was determined as 128 °C.

Take `CCc1cc(Cl)c(N)c(Cl)c1`: the melting point fell in the range of 47 to 48 °C.

`CC(c1ccc(C(F)(F)F)cc1)N(O)C(N)=O` (stereo not given) returned a melting point of 133 to 135 °C.
